Measurements taken from ChEMBL document CHEMBL5120874, “Tanzawaic Acid Derivatives: Fungal Polyketides from the Deep-Sea Coral-Derived Endozoic Penicillium steckii AS-324” (2022).
Converted amounts (≈) assume the structure as drawn.

How the values were obtained:
Type in all cases: functional
[1] = test system: Aeromonas hydrophila; experiment: Antibacterial activity against Aeromonas hydrophila QDIO-1 assessed as inhibition of bacterial growth by serial dilution method
[2] = test system: Edwardsiella tarda; experiment: Antibacterial activity against Edwardsiella tarda QDIO-2 assessed as inhibition of bacterial growth by serial dilution method
[3] = test system: Vibrio anguillarum; experiment: Antibacterial activity against Vibrio anguillarum QDIO-6 assessed as inhibition of bacterial growth by serial dilution method
[4] = test system: Escherichia coli; experiment: Antibacterial activity against Escherichia coli EMBLC-1 assessed as inhibition of bacterial growth by serial dilution method
[5] = test system: Vibrio parahaemolyticus; experiment: Antibacterial activity against Vibrio parahaemolyticus QDIO-8 assessed as inhibition of bacterial growth by serial dilution method
[6] = test system: Pseudomonas aeruginosa; experiment: Antibacterial activity against Pseudomonas aeruginosa QDIO-4 assessed as inhibition of bacterial growth by serial dilution method
[7] = test system: Micrococcus luteus; experiment: Antibacterial activity against Micrococcus luteus QDIO-3 assessed as inhibition of bacterial growth by serial dilution method
[8] = test system: Vibrio alginolyticus; experiment: Antibacterial activity against Vibrio alginolyticus QDIO-5 assessed as inhibition of bacterial growth by serial dilution method

SMILES	MIC [1]	MIC [2]	MIC [3]	MIC [4]	MIC [6]	MIC [7]	MIC [8]	MIC [5]
Cc1cc(C)c2c(/C=C/C=C/C(=O)O)c(CO)ccc2c1	64 µg/mL (≈ 227 µM)	> 64 µg/mL	> 64 µg/mL	> 64 µg/mL	> 64 µg/mL	> 64 µg/mL	32 µg/mL (≈ 113 µM)	64 µg/mL (≈ 227 µM)
Cc1cc(CO)cc2ccc(CO)c(/C=C/C=C/C(=O)O)c12	> 64 µg/mL	> 64 µg/mL	> 64 µg/mL	> 64 µg/mL	> 64 µg/mL	> 64 µg/mL	64 µg/mL (≈ 215 µM)	> 64 µg/mL
C[C@@H]1C[C@H](CO)C[C@@H]2C=C[C@@](C)(O)[C@](O)(/C=C/C=C/C(=O)O)[C@@H]12	> 64 µg/mL	> 64 µg/mL	8 µg/mL (≈ 24.8 µM)	> 64 µg/mL	> 64 µg/mL	> 64 µg/mL	32 µg/mL (≈ 99.3 µM)	64 µg/mL (≈ 199 µM)
Cc1cc(CO)cc2ccc(CO)c(/C=C\C=C\C(=O)O)c12	> 64 µg/mL	> 64 µg/mL	> 64 µg/mL	> 64 µg/mL	> 64 µg/mL	> 64 µg/mL	> 64 µg/mL	> 64 µg/mL
CO[C@@]1(C)C=C[C@H]2C[C@@H](CO)C[C@@H](C)[C@@H]2[C@H]1/C=C/C=C/C(=O)O	> 64 µg/mL	> 64 µg/mL	> 64 µg/mL	8 µg/mL (≈ 25 µM)	> 64 µg/mL	> 64 µg/mL	32 µg/mL (≈ 99.9 µM)	> 64 µg/mL
Cc1ccc2c(c1/C=C/C=C/C(=O)O)[C@H](C)C[C@H](CO)C2	> 64 µg/mL	> 64 µg/mL	4 µg/mL (≈ 14 µM)	> 64 µg/mL	> 64 µg/mL	> 64 µg/mL	> 64 µg/mL	64 µg/mL (≈ 223 µM)
Cc1ccc2c(c1/C=C/C=C/C(=O)O)[C@H](C)C[C@@](C)(O)C2=O	> 64 µg/mL	> 64 µg/mL	4 µg/mL (≈ 13.3 µM)	64 µg/mL (≈ 213 µM)	> 64 µg/mL	> 64 µg/mL	> 64 µg/mL	64 µg/mL (≈ 213 µM)
O=C(N[C@H](CO)[C@H](O)c1ccc([N+](=O)[O-])cc1)C(Cl)Cl [CHLORAMPHENICOL]	1 µg/mL (≈ 3.09 µM)	2 µg/mL (≈ 6.19 µM)	2 µg/mL (≈ 6.19 µM)	1 µg/mL (≈ 3.09 µM)	1 µg/mL (≈ 3.09 µM)	0.5 µg/mL (≈ 1.55 µM)	2 µg/mL (≈ 6.19 µM)	1 µg/mL (≈ 3.09 µM)

Further lines, with some results ahead:

MIC [1]	MIC [2]	MIC [3]	MIC [4]	MIC [6]	MIC [7]	MIC [8]	SMILES	MIC [5]
> 64 µg/mL	> 64 µg/mL	> 64 µg/mL	> 64 µg/mL	16 µg/mL (≈ 55.9 µM)	> 64 µg/mL	> 64 µg/mL	Cc1ccc2c(c1/C=C/C=C/C(=O)O)[C@H](C)C[C@@](C)(O)C2	> 64 µg/mL
> 64 µg/mL	> 64 µg/mL	> 64 µg/mL	> 64 µg/mL	4 µg/mL (≈ 13.1 µM)	> 64 µg/mL	> 64 µg/mL	C[C@H]1C=C[C@H]2C[C@@H](CO)C[C@](C)(O)[C@@H]2[C@H]1/C=C/C=C/C(=O)O	> 64 µg/mL
> 64 µg/mL	> 64 µg/mL	8 µg/mL (≈ 25 µM)	> 64 µg/mL	> 64 µg/mL	> 64 µg/mL	> 64 µg/mL	CO[C@]1(C)C=C[C@H]2C[C@@H](CO)C[C@@H](C)[C@@H]2[C@H]1/C=C/C=C/C(=O)O	64 µg/mL (≈ 200 µM)
32 µg/mL (≈ 112 µM)	> 64 µg/mL	4 µg/mL (≈ 14 µM)	64 µg/mL (≈ 223 µM)	> 64 µg/mL	64 µg/mL (≈ 223 µM)	32 µg/mL (≈ 112 µM)	Cc1ccc2c(c1/C=C/C=C/C(=O)O)[C@H](C)C[C@H](C)[C@@H]2O	32 µg/mL (≈ 112 µM)
> 64 µg/mL	> 64 µg/mL	> 64 µg/mL	64 µg/mL (≈ 220 µM)	> 64 µg/mL	> 64 µg/mL	32 µg/mL (≈ 110 µM)	C[C@@H]1C[C@@H]2C=C[C@H](C)[C@H](/C=C/C=C/C(=O)O)[C@H]2[C@@](C)(O)C1	64 µg/mL (≈ 220 µM)
64 µg/mL (≈ 220 µM)	> 64 µg/mL	> 64 µg/mL	64 µg/mL (≈ 220 µM)	> 64 µg/mL	8 µg/mL (≈ 27.5 µM)	8 µg/mL (≈ 27.5 µM)	CC1C=C[C@H]2C[C@@H](CO)C[C@@H](C)[C@@H]2[C@H]1/C=C/C=C/C(=O)O (stereo not given in full)	> 64 µg/mL
> 64 µg/mL	64 µg/mL (≈ 227 µM)	> 64 µg/mL	64 µg/mL (≈ 227 µM)	> 64 µg/mL	2 µg/mL (≈ 7.08 µM)	16 µg/mL (≈ 56.7 µM)	Cc1ccc2cc(CO)cc(C)c2c1/C=C/C=C/C(=O)O	32 µg/mL (≈ 113 µM)
